Laboratory results from ChEMBL document CHEMBL2057157, “Butyl pocket formation in the vitamin D receptor strongly affects the agonistic or antagonistic behavior of ligands” (J Med Chem, 2012).

Target: T1, Vitamin D3 receptor (Homo sapiens, UniProt P11473)
T1 sequence (P11473 whole entry): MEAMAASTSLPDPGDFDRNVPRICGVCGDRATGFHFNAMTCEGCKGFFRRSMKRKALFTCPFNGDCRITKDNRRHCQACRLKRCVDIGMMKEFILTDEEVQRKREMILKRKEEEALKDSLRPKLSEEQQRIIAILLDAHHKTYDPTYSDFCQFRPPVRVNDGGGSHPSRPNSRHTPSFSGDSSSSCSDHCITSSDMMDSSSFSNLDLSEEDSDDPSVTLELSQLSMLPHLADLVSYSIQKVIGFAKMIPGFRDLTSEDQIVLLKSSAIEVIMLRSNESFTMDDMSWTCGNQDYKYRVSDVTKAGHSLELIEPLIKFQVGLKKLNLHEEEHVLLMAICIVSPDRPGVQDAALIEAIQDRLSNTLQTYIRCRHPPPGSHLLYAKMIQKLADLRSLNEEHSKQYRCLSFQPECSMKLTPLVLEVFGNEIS
Test: Displacement of [3H]1alpha,25-dihydroxyvitamin D3 from human recombinant GST-tagged vitamin D3 receptor LBD expressed in Escherichia coli BL21 after 16 hrs

SMILES: C=C1[C@H](O)CC(=C/C=C2\CCC[C@]3(C)[C@@H]([C@H](C)[C@@H](CC)CC(O)(CC)CC)CC[C@@H]23)C[C@H]1O
- IC50: 0.38 nM
